According to patent US11213509B2, “Compositions and methods for treating traumatic brain injury” (Ischemix, LLC, priority 2017, dated 2022):

How the values were obtained:
[1] = system: fluid percussion model of diffused traumatic brain injury (TBI) in rats; experiment: Body swing test, fluid percussion model of diffused TBI; format: in vivo, rat; settings: 45 mg/kg i.v. at 30 minutes and 24 hours after TBI; Day 28; vs vehicle, p<0.05
Description: On the day before TBI surgery (Day −1), rats were anesthetized with 3% isoflurane in a mixture of nitrous oxide and oxygen (2:1) for induction of anesthesia and then maintained at 1-3% isoflurane in a mixture of nitrous oxide and oxygen (2:1). The surgical site skin was shaved, and the rat was then placed in a stereotaxic frame. Buprenorphine SR, s.c, (0.9-1.2 mg/kg Zoopharm: Lot: BSR1-142111) and Cefazolin, i.p., (40-50 mg/kg; Hospira: Lot: 101D032) was given at this time. The skull was exposed through a midline incision. A parasagittal craniotomy (5 mm) using a trephine drill was performed at 1 mm posterior to bregma and 1 mm lateral to the midline (outer circumference). […]
On the day of TBI surgery (Day 0), rats were re-anesthetized with 3% isoflurane in a mixture of nitrous oxide and oxygen (2:1), intubated, connected to a respirator and ventilated with 1-2% isoflurane in a mixture of nitrous oxide and oxygen (2:1). […] The amplitude of the resulting pressure pulse was measured in atmospheres by a pressure transducer. […]
Dosing solutions were prepared in a blinded fashion with H, I, M, O and Z labels ready to use. […]
The rat was held approximately one inch from the base of its tail. […] A swing was recorded whenever the rat moved its head out of the vertical axis to either side. The rat must have returned to the vertical position for the next swing to be counted. Thirty (30) total swings were counted. […]

rat model of focal TBI = experiment: Beam balance test, rat model of focal TBI (BCCI); format: in vivo
From the text: BCCI TBI to the medial frontal cortex (MFC) was induced by a cortical contusion device (Custom Design & Fabrication, Inc [CDF], Richmond, Va.). This device creates a reliable contusion injury to the exposed area of the brain with a brass-tipped impounder. (Hoffman et al., 1994). Rats were anesthetized with isoflurane (5%) (Novaplus™), and 02 (300 cm^3/min), and mounted in a stereotaxic frame. Under aseptic conditions, a sagittal incision was made in the scalp and the fascia retracted to expose the cranium. Then, a 6-mm diameter trephine drill was used to open the skull immediately anterior to the bregma. TBI of the MFC was made with a 5-mm-diameter rounded brass impactor attached to a computer-controlled piston propelled electronically with following parameters: velocity=2.5 m/s; depth=3 mm; duration=100 ms). After BCCI, any cortical surface hemorrhaging was controlled and the fascia and scalp sutured. […]
The beam balance test examined vestibulomotor reflex activity of the animals after injury. […] The animal was gently placed on a suspended narrow beam 1.5 cm wide with a rough surface and the duration for which it remained on the beam was measured with a maximum cutoff time of 60 sec. […]
Data are presented as mean±SEM and analyzed by one-way repeated measures Analysis of variance (ANOVA) in order to test the effects of treatment on beam balance times and Morris water maze performance. […]

protein carboxylation = experiment: Protein carboxylation by ELISA, focal TBI model in piglets; format: in vivo; settings: cortical penumbra, ipsilateral; vs placebo, p<0.01
Description: Study Design: A blinded, placebo controlled proof of concept trial of CMX-2043 was conducted in four-week-old piglets (8-10 kg). […] Sixteen piglets (n=16) were designated into three cohorts: 1) Controlled cortical impact (CCI) at the rostral gyrus treated with a bolus of CMX-2043 (n=5), 2) CCI injured animals treated with placebo (n=5) and 3) sham animals (n=6). CMX-2043 treated animals received an intravenous loading bolus of CMX-2043 (13.4 mg/kg) 1 hour post-TBI and a 4.5 mg/kg bolus at 13 hours post-TBI. Subjects were intubated, ventilated and anesthesia maintained on isoflurane (1.0%). Buprenorphine (0.02 mg/kg IM) was administered for analgesia immediately following intubation. Monitors recorded oxygen saturation, heart rate, respiration rate, rectal temperature, and end tidal CO2. […] All piglets were sacrificed between 24-25 hours post-TBI.
Samples from the same ipsilateral region that were analyzed for mtROS were analyzed for oxidative damage by measuring protein carboxylation (VWR Int'l), and compared to placebo and shams.

Structure (SMILES): CC(NC(=O)C(CCC(=O)O)NC(=O)CCCCC1CCSS1)C(=O)O [CMX-2043, N—(R)-lipoyl-glutamylalanine]
- Body swing test recovery [1]: superior recovery compared to vehicle-treated animals
- Treatment efficacy in beam balance motor test (rat model of focal TBI; 30 mg/kg intravenously): not in the beam balance motor test
- Beam balance time (rat model of focal TBI; Day 3 following injury, 30 mg/kg IV, all groups): less than 3 seconds
- Protein carboxylation (ELISA) (protein carboxylation): significant reduction in protein carboxylation
